The results in this text go back to patent publication US11878973B2, “Bicyclic compounds and their uses” (NOVARTIS AG, priority 2021, dated 2024).

One assay concerns the target WRN helicase (Homo sapiens (Human), UniProt Q14191). Nature of the assay: In vitro enzymatic activity assay on WRN helicase (DNA dependent ATPase assay, ADP-Glo). The assay is classed as biochemical. The following applies: geometric means of at least 2 determinations; read-out: WRN ATPase Activity (IC50). Put shortly: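 The WRN helicase core (aa N517-P1238), 10 nM, hydrolysed 300 µM ATP in the presence of 0.2 nM FLAP26 DNA (Tris pH 7.5, 2 mM MgCl2, 50 mM NaCl) for 30 min at room temperature. ADP formed was quantified by ADP-Glo luminescence.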

A further assay has as its system SW48 cells. Nature of the assay: Proliferation assay SW48 (CellTiterGlo, 96 hours). The following applies: Homo sapiens, SW48, read-out: Proliferation Assay SW48 (GI50). On the technique in general: In ATP-based viability assays light output follows the ATP content of the culture.
The next assay concerns DLD1-WRN-KO cells. Nature of the assay: Proliferation assay DLD1-WRN-KO (CellTiterGlo, 96 hours; off-target effects). The settings on record: Homo sapiens, read-out: Proliferation Assay DLD1-WRN-KO (GI50).

Chain of WRN helicase (Q14191 517-1238): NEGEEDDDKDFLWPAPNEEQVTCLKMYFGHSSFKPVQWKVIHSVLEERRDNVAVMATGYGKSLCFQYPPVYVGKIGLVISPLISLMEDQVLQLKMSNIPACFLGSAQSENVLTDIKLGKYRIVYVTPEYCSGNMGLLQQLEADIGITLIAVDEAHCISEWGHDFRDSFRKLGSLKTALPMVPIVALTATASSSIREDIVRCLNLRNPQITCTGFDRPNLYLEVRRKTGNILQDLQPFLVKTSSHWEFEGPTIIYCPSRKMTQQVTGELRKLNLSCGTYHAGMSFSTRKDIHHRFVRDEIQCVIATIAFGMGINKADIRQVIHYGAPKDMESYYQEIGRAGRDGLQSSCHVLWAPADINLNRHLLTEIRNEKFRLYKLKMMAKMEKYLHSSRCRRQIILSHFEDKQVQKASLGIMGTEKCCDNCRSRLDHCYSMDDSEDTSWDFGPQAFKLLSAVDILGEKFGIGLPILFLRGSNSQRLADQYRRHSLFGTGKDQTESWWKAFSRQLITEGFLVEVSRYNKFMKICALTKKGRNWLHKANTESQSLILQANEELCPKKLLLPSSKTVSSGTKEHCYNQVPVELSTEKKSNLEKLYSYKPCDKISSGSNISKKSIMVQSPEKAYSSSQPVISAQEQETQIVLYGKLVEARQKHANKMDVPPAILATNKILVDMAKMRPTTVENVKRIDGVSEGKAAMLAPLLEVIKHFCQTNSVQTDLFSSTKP

Turning to `CCc1c(N2CCN(C(=O)c3ncccc3O)CC2)c(=O)n2nc(N3CCCC3)nc2n1CC(=O)Nc1cc(Cl)c(C(F)(F)F)cc1C` [Example 19, N-(5-chloro-2-methyl-4-(trifluoromethyl)phenyl)-2-(5-ethyl-6-(4-(3-hydroxypicolinoyl)piperazin-1-yl)-7-oxo-2-(pyrrolidin-1-yl)-[1,2,4]triazolo[1,5-a]pyrimidin-4(7H)-yl)acetamide], the IC50 at WRN helicase stood at 90 nM. In addition, the GI50 was determined as 110 nM with SW48 cells and 5000 nM with DLD1-WRN-KO cells.
On the same counts, the results for `CCc1c(N2CCN(C(=O)c3ncccc3O)CC2)c(=O)n2nc(N3CCC(N(C)CC(F)F)CC3)nc2n1CC(=O)Nc1ccc(C(F)(F)F)nc1Cl` [Example 20, N-(2-chloro-6-(trifluoromethyl)pyridin-3-yl)-2-(2-(4-((2,2-difluoroethyl)(methyl)amino)piperidin-1-yl)-5-ethyl-6-(4-(3-hydroxypicolinoyl)piperazin-1-yl)-7-oxo-[1,2,4]triazolo[1,5-a]pyrimidin-4(7H)-yl)acetamide] are 310 nM, 100 nM and more than 10000 nM.
On the same counts, the results for `CCc1c(N2CCN(C(=O)c3ncccc3O)CC2)c(=O)n2nc(N3CC4CC(C3)O4)nc2n1CC(=O)Nc1ccc(C(F)(F)F)cc1C` [Example 21, 2-(2-(6-oxa-3-azabicyclo[3.1.1]heptan-3-yl)-5-ethyl-6-(4-(3-hydroxypicolinoyl)piperazin-1-yl)-7-oxo-[1,2,4]triazolo[1,5-a]pyrimidin-4(7H)-yl)-N-(2-methyl-4-(trifluoromethyl)phenyl)acetamide] are 180 nM, 1070 nM and more than 10000 nM.
In the case of `Cc1c(N2CCN(C(=O)c3ncccc3O)CC2)c(=O)n2nc(N3CC4CC(C3)O4)nc2n1CC(=O)Nc1ccc(C(F)(F)F)cc1F` [Example 22, 2-(2-(6-oxa-3-azabicyclo[3.1.1]heptan-3-yl)-6-(4-(3-hydroxypicolinoyl)piperazin-1-yl)-5-methyl-7-oxo-[1,2,4]triazolo[1,5-a]pyrimidin-4(7H)-yl)-N-(2-fluoro-4-(trifluoromethyl)phenyl)acetamide], the 50% inhibitory concentration (IC50) on WRN helicase turned out to be 600 nM. In addition, the GI50 with SW48 cells is 2630 nM; in the assay with DLD1-WRN-KO cells it was more than 10000 nM.
For `CCc1c(N2CCN(C(=O)c3ncccc3O)CC2)c(=O)n2nc(N3C[C@@H](F)[C@@H](F)C3)nc2n1CC(=O)Nc1ccc(C(F)(F)F)cc1C` [Example 23, 2-(2-((3R,4S)-3,4-difluoropyrrolidin-1-yl)-5-ethyl-6-(4-(3-hydroxypicolinoyl)piperazin-1-yl)-7-oxo-[1,2,4]triazolo[1,5-a]pyrimidin-4(7H)-yl)-N-(2-methyl-4-(trifluoromethyl)phenyl)acetamide], in that order: 260 nM, 1540 nM and more than 10000 nM.
For `CCc1c(N2CCN(C(=O)c3ncccc3O)CC2)c(=O)n2nc(C3=COCCO3)nc2n1CC(=O)Nc1ccc(C(F)(F)F)nc1Cl` [Example 27, N-(2-chloro-6-(trifluoromethyl)pyridin-3-yl)-2-(2-(5,6-dihydro-1,4-dioxin-2-yl)-5-ethyl-6-(4-(3-hydroxypicolinoyl)piperazin-1-yl)-7-oxo-[1,2,4]triazolo[1,5-a]pyrimidin-4(7H)-yl)acetamide], the IC50 on WRN helicase is 130 nM. For the same molecule, the values for the GI50 with SW48 cells and with DLD1-WRN-KO cells were 270 nM and more than 10000 nM, respectively.
On the same counts, the results for `CCc1c(N2CCN(C(=O)c3ncnc(C)c3O)CC2)c(=O)n2nc(C3=CCCCO3)nc2n1CC(=O)Nc1ccc(C(F)(F)F)nc1Cl` [Example 28, N-(2-chloro-6-(trifluoromethyl)pyridin-3-yl)-2-(2-(3,4-dihydro-2H-pyran-6-yl)-5-ethyl-6-(4-(5-hydroxy-6-methylpyrimidine-4-carbonyl)piperazin-1-yl)-7-oxo-[1,2,4]triazolo[1,5-a]pyrimidin-4(7H)-yl)acetamide] are 130 nM, 100 nM and more than 10000 nM.
For `CCc1c(N2CCN(C(=O)c3ncccc3O)CC2)c(=O)n2nc(C3=CCCCO3)nc2n1CC(=O)Nc1ccc(C(F)(F)F)nc1Cl` [Example 29, N-(2-chloro-6-(trifluoromethyl)pyridin-3-yl)-2-(2-(3,4-dihydro-2H-pyran-6-yl)-5-ethyl-6-(4-(3-hydroxypicolinoyl)piperazin-1-yl)-7-oxo-[1,2,4]triazolo[1,5-a]pyrimidin-4(7H)-yl)acetamide], in that order: 90 nM, 50 nM and more than 10000 nM.
Take `CCc1c(N2CCN(C(=O)c3nccc(Cl)c3O)CC2)c(=O)n2nc(C3=CCCCO3)nc2n1CC(=O)Nc1ccc(C(F)(F)F)nc1Cl` [Example 30, 2-(6-(4-(4-chloro-3-hydroxypicolinoyl)piperazin-1-yl)-2-(3,4-dihydro-2H-pyran-6-yl)-5-ethyl-7-oxo-[1,2,4]triazolo[1,5-a]pyrimidin-4(7H)-yl)-N-(2-chloro-6-(trifluoromethyl)pyridin-3-yl)acetamide]: on WRN helicase, the IC50 came to 140 nM. The GI50 in the assay with SW48 cells was 160 nM; in the assay with DLD1-WRN-KO cells, more than 10000 nM.
On the same counts, the results for `CCc1c(N2CCN(C(=O)c3ncnc(C)c3O)CC2)c(=O)n2nc(C3=CCCCO3)nc2n1CC(=O)Nc1ccc(C(F)(F)F)nc1C` [Example 31, 2-(2-(3,4-dihydro-2H-pyran-6-yl)-5-ethyl-6-(4-(5-hydroxy-6-methylpyrimidine-4-carbonyl)piperazin-1-yl)-7-oxo-[1,2,4]triazolo[1,5-a]pyrimidin-4(7H)-yl)-N-(2-methyl-6-(trifluoromethyl)pyridin-3-yl)acetamide] are 230 nM, 320 nM and more than 10000 nM.
For `CCc1c(N2CCN(C(=O)c3ncccc3O)CC2)c(=O)n2nc(C3=CCCCO3)nc2n1CC(=O)Nc1ccc(C(F)(F)F)cc1Cl` [Example 32, N-(2-chloro-4-(trifluoromethyl)phenyl)-2-(2-(3,4-dihydro-2H-pyran-6-yl)-5-ethyl-6-(4-(3-hydroxypicolinoyl)piperazin-1-yl)-7-oxo-[1,2,4]triazolo[1,5-a]pyrimidin-4(7H)-yl)acetamide], in that order: 60 nM, 60 nM and 7600 nM.
On the same counts, the results for `CCc1c(N2CCN(C(=O)c3ncccc3O)CC2)c(=O)n2nc(C3=CCOCC3)nc2n1CC(=O)Nc1cnc(C(F)(F)F)cc1Cl` [Example 33, N-(4-chloro-6-(trifluoromethyl)pyridin-3-yl)-2-(2-(3,6-dihydro-2H-pyran-4-yl)-5-ethyl-6-(4-(3-hydroxypicolinoyl)piperazin-1-yl)-7-oxo-[1,2,4]triazolo[1,5-a]pyrimidin-4(7H)-yl)acetamide] are 260 nM, 220 nM and more than 10000 nM.
Turning to `CCc1c(N2CCN(C(=O)c3ncccc3O)CC2)c(=O)n2nc(C3=CCOCC3)nc2n1CC(=O)Nc1cnc(C(F)(F)F)cc1C` [Example 34, 2-(2-(3,6-dihydro-2H-pyran-4-yl)-5-ethyl-6-(4-(3-hydroxypicolinoyl)piperazin-1-yl)-7-oxo-[1,2,4]triazolo[1,5-a]pyrimidin-4(7H)-yl)-N-(4-methyl-6-(trifluoromethyl)pyridin-3-yl)acetamide], the IC50 on WRN helicase came out at 250 nM. For the same molecule, the GI50 was 280 nM in the assay on SW48 cells and more than 10000 nM in the assay on DLD1-WRN-KO cells.

One may read the IC50 as the midpoint of a concentration-inhibition curve.
